Assay results from ChEMBL document CHEMBL1201862, “PubChem BioAssay data set” (2004).
Active and inactive are the calls of the source.

Assays:
[1] = target: COUP transcription factor 2 (Homo sapiens, UniProt P24468); assay: Luminescence-based cell-based high throughput dose response assay to identify inhibitors of COUP-TFII (NR2F2).; assay type: functional;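 also: HEK293 cells transiently cotransfected with COUP-TFII expression vector and reporter; luciferase reporter luminescence driven by COUP-TFII from the pX2-168 reporter plasmid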
COUP transcription factor 2, sequence (P24468 whole entry): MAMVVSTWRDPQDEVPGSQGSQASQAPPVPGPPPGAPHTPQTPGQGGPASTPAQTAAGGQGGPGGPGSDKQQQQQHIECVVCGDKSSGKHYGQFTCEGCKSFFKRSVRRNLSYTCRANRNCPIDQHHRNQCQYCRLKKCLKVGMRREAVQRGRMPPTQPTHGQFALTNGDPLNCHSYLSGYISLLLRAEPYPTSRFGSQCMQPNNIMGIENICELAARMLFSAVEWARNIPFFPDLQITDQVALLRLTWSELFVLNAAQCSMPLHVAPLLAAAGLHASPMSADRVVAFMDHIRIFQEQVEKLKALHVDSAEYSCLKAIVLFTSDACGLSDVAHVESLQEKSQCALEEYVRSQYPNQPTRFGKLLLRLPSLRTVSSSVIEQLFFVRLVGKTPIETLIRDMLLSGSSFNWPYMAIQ

Streptokinase A = target: T1, Streptokinase A (Streptococcus pyogenes serotype M1, UniProt P10520); assay: S. pyogenes streptokinase expression inhibitors, potency, dose response, plasminogen activation absorbance, OD405 (AID 1914); assay type: functional, Streptococcus pyogenes M1 GAS;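 also: secreted streptokinase activity via plasminogen activation per viability signal from cell pellet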
T1 sequence (P10520 whole entry): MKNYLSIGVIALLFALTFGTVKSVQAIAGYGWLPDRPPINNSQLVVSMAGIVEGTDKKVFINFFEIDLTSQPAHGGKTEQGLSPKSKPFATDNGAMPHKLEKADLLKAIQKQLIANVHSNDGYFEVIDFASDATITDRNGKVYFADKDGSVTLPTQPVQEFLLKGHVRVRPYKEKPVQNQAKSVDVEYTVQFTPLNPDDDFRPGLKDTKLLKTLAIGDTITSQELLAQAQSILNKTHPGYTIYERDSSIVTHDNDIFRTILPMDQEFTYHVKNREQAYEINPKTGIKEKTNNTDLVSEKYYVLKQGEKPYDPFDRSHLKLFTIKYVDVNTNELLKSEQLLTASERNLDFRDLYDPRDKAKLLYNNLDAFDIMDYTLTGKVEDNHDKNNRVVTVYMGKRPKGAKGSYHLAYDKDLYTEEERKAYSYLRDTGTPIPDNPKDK

[2] = NIH-3T3 fibroblast cytotoxicity, dose response, cytotoxicity control, cell-based, fluorescence, Alamar Blue, secondary assay (AID 2327); assay type: functional;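 also: NIH-3T3 mouse fibroblasts cultured with fluconazole at 8 µg/mL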
[3] = target: T2, Probable nicotinate-nucleotide adenylyltransferase (Staphylococcus aureus (strain N315), UniProt P65502); assay type: functional, Staphylococcus aureus subsp. aureus N315; settings: read-out: IC50_Mean;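 as to IC50 Mean: confirmatory dose-response retesting of NadD inhibitor hits first found in an ultra-high-throughput screen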
T2 sequence (P65502 whole entry): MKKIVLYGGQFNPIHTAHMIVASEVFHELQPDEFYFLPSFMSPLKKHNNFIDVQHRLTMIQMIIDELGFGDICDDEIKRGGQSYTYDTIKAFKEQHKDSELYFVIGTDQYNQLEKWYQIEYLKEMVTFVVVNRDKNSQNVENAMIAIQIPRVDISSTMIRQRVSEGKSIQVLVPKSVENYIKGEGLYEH

[4] = target: T2, Probable nicotinate-nucleotide adenylyltransferase; assay type: functional, Staphylococcus aureus subsp. aureus N315
[5] = test system: Streptococcus sp. 'group A'; assay: growth inhibition of control SK(-) GAS strain, dose response, counter-screen for streptokinase expression inhibitor project, luminescence, kanamycin, BacTiterGlo, confirmation (AID 1900); assay type: functional, organism-based
[6] = target: Disintegrin and metalloproteinase domain-containing protein 17 (Homo sapiens, UniProt P78536); assay: ADAM17 protease inhibitors, dose response, counter-screen for ADAM10 exosite inhibitor project, biochemical, quenched FRET substrate (AID 743253)
Disintegrin and metalloproteinase domain-containing protein 17, sequence (P78536 whole entry, the tested form may be a part): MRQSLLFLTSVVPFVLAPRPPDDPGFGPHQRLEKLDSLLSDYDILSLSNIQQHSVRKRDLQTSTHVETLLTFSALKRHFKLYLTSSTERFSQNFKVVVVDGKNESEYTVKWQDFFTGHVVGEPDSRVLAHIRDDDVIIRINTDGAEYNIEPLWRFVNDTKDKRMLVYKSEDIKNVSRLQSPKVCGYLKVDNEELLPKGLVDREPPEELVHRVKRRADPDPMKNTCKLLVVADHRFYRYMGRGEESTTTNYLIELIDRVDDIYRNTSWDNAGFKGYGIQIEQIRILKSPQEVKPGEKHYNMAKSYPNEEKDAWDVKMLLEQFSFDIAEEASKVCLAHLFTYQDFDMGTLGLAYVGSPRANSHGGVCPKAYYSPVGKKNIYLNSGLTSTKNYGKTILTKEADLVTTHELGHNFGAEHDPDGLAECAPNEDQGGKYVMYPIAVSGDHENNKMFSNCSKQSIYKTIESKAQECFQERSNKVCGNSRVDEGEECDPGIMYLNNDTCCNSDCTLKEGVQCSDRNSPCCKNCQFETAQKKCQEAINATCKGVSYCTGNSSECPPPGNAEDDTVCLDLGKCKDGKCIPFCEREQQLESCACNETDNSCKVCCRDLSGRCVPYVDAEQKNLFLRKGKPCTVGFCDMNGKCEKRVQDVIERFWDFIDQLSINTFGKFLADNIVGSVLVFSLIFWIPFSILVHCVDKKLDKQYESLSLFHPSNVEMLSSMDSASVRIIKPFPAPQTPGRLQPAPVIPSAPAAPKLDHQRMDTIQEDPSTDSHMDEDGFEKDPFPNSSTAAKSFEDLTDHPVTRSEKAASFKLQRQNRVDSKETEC

Streptococcus = assay: Group A Streptococcus viability loss, dose response, counter-screen for streptokinase expression inhibitor project, luminescence, BacTiterGlo (AID 1915); assay type: functional, organism-based;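 also: potency for reduction of bacterial viability or growth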
[7] = C. albicans growth with fluconazole, confirmation, fluorescence, retest (AID 2467); assay type: functional, cell-based
[8] = target: T3, Oxysterols receptor LXR-beta (Homo sapiens, UniProt P55055); assay type: functional, cell-based;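 also: agonist activity at LXR measured by a cell-based luminescence readout across a dose range, run as a counterscreen for daf-12 agonists; HEK293 cells with Gal4-LXR fusion and GAL4-driven luciferase reporter; potency for activation of Gal4-LXR reporter so compounds are agonists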
T3 sequence (P55055 whole entry): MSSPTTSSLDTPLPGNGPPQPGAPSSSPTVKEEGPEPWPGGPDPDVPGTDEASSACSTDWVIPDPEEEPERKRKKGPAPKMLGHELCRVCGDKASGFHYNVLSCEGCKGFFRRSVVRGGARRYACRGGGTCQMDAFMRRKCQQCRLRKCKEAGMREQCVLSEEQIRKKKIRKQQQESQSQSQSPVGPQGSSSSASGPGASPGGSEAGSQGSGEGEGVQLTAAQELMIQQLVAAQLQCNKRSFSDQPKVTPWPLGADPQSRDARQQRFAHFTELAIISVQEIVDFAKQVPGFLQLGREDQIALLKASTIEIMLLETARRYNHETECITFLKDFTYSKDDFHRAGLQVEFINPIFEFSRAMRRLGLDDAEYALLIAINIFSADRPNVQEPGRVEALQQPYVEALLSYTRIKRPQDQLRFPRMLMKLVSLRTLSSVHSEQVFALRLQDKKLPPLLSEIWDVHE

[9] = target: T4, Heat shock factor protein 1 (Mus musculus, UniProt P38532); assay: inhibition of MG132-induced HSE-luciferase signal, confirmation, cell-based, NIH3T3, luminescence, dose retest (AID 2382); assay type: functional;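 also: NIH3T3 fibroblasts with HSF1-driven luciferase reporter stressed by proteasome inhibitor MG132; luminescence from HSF1-driven luciferase expression after 8 hours of MG132 stress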
T4 sequence (P38532 whole entry): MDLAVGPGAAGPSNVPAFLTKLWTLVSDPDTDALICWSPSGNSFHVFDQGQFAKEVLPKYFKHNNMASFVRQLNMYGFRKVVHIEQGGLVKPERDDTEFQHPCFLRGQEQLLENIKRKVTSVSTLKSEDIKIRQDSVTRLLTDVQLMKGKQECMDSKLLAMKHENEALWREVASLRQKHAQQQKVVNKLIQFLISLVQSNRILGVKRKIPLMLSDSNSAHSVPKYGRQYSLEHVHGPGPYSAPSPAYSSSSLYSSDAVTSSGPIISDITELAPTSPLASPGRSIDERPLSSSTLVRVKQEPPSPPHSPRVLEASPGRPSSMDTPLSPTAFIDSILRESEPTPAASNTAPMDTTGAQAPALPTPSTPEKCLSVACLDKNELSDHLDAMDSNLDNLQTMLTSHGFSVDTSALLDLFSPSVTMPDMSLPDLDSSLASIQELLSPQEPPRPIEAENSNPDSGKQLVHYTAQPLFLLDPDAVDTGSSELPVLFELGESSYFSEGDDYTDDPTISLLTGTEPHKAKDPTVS

[10] = A549 cell cytotoxicity, dose response, cytotoxicity control, plate reader, cherry-pick, antagonist series (AID 743412); assay type: functional, cell-based
[11] = HEK293 cell cytotoxicity, dose response, cytotoxicity control, plate reader, cherry-picked samples (AID 743446); assay type: functional, cell-based
[12] = inhibitors of SNCA 5'UTR-driven reporter translation, confirmation, H4 neuroglioma cells, luminescence (AID 1988); assay type: functional, cell-based
[13] = inhibitors of firefly luciferase expression or activity, dose response, H4 neuroglioma cells, luminescence (AID 1990); assay type: functional, cell-based
[14] = Luminescence Cell-Based Dose Response HTS to Identify Inhibitors of 5'UTR Stem-Loop Driven Prion Protein mRNA Translation in H4 Neuroglioblastoma Cells. [Related pubchem assays: 1827 (Project Summary), 1813 (Primary HTS)]; assay type: functional
[15] = HepG2 cell cytotoxicity, dose response, cytotoxicity control, plate reader, cherry-pick, antagonist series (AID 743416); assay type: functional, cell-based
[16] = MC4R antagonists, dose response, counter-screen for LGR2 antagonist project, cell-based, plate reader, cherry pick (AID 743444); assay type: functional;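 also: transfected HEK 293 cells stimulated with alpha-MSH peptide; potency of inhibitors of the alpha-MSH evoked signal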
[17] = LGR2 antagonists, dose response, cell-based, HEK293, CRE-luciferase reporter, cherry pick, set 2 (AID 743343); assay type: functional;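 also: transfected cells were stimulated with diluted bursicon conditioned medium after compound addition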
fMet-Leu-Phe receptor = fMet-Leu-Phe receptor (Homo sapiens, UniProt P21462); assay: FPR ligands, dose response (AID 519); assay type: functional
fMet-Leu-Phe receptor, sequence (P21462 whole entry): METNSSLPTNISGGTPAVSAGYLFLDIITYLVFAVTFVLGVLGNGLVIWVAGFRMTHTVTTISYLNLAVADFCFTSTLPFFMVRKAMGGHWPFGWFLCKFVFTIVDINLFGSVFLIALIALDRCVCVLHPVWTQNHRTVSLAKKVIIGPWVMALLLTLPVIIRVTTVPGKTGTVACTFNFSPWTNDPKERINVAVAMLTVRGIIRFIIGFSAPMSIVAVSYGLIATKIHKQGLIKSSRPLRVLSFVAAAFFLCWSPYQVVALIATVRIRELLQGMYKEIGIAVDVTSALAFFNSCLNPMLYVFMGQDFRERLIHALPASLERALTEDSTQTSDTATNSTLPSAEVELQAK

[18] = target: Endoplasmic reticulum aminopeptidase 1 (Homo sapiens, UniProt Q9NZ08); assay: ERAP1 aminopeptidase inhibitors, dose response, biochemical, cherry-pick, set 2, plate reader (AID 743314)
Endoplasmic reticulum aminopeptidase 1, sequence (Q9NZ08 whole entry): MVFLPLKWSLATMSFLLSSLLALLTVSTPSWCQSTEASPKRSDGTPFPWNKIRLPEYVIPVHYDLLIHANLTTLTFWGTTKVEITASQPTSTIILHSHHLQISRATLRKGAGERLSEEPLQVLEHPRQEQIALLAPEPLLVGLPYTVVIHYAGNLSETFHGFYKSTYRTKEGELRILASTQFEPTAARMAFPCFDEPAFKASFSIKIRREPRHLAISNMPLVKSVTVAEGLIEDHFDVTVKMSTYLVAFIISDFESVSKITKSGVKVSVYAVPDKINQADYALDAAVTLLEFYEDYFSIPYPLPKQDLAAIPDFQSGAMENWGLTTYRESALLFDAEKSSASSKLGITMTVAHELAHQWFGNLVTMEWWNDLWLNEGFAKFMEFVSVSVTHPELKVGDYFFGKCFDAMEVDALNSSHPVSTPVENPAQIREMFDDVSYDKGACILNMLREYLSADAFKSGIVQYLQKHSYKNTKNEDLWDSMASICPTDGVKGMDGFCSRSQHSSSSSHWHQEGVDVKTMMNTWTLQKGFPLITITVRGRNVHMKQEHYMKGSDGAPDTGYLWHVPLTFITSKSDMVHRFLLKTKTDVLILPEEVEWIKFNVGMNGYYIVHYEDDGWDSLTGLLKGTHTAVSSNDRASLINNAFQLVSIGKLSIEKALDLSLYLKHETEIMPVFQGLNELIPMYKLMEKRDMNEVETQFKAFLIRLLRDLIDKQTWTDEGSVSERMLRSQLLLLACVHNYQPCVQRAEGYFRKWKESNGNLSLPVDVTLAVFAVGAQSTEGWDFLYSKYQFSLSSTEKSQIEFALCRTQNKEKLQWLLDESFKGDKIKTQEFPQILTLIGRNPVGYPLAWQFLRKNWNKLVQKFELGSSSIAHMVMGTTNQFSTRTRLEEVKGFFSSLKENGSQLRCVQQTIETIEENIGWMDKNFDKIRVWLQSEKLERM

[19] = target: T5, Replicative DNA helicase DnaB (Mycobacterium tuberculosis, UniProt P9WMR3); assay: DnaB intein splicing inhibitors, dose response, biochemical, cell-free fluorescence (AID 449749); assay type: functional
T5 sequence (P9WMR3 whole entry): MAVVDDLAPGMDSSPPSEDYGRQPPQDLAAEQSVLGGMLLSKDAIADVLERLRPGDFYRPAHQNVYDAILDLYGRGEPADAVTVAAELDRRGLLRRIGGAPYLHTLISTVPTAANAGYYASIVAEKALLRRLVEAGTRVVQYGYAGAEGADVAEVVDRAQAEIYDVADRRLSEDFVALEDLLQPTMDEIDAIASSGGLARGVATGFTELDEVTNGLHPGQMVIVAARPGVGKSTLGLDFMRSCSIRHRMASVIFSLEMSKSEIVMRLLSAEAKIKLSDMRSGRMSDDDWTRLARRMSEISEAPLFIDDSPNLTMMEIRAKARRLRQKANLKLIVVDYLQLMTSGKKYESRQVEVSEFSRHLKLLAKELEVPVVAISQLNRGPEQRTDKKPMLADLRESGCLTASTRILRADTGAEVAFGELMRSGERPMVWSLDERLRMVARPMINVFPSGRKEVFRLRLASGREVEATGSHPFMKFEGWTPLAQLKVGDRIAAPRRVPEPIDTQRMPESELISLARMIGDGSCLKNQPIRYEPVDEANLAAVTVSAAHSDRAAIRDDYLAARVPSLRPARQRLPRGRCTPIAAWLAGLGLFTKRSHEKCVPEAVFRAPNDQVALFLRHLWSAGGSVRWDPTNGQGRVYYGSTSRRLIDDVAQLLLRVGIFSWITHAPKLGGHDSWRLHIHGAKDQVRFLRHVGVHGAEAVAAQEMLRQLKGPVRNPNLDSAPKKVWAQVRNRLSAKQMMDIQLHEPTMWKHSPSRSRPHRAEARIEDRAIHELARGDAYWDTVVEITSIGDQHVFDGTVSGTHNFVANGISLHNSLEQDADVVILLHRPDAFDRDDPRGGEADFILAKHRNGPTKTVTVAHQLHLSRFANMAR

[20] = inhibitors of intracellular T. cruzi replication, confirmation, NIH3T3 host cells, beta-gal luminescence (AID 2044); assay type: functional, cell-based;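 also: intracellular parasites grown in NIH/3T3 mouse fibroblasts as host cells; luminescent beta-galactosidase reporter signal from transgenic T. cruzi replicating inside host cells; inhibitors lower the luminescence signal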
[21] = target: Induced myeloid leukemia cell differentiation protein Mcl-1 (Homo sapiens, UniProt Q07820); assay type: functional
Induced myeloid leukemia cell differentiation protein Mcl-1, sequence (Q07820 whole entry): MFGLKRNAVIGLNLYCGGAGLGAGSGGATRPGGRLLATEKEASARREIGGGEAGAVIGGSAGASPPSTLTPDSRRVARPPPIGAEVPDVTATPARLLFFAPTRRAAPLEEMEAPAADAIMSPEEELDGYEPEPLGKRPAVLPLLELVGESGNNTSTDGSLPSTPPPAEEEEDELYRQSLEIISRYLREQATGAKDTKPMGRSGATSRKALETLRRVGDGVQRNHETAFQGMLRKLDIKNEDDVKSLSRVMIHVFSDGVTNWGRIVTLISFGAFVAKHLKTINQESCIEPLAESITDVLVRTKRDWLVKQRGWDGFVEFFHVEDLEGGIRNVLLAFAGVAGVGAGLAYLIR

Mu-type opioid receptor = Mu-type opioid receptor (Homo sapiens, UniProt P35372); assay type: functional, cell-based;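 also: U2OS cells with beta-arrestin recruitment to OPRM1 by beta-gal complementation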
Mu-type opioid receptor, sequence (P35372 whole entry): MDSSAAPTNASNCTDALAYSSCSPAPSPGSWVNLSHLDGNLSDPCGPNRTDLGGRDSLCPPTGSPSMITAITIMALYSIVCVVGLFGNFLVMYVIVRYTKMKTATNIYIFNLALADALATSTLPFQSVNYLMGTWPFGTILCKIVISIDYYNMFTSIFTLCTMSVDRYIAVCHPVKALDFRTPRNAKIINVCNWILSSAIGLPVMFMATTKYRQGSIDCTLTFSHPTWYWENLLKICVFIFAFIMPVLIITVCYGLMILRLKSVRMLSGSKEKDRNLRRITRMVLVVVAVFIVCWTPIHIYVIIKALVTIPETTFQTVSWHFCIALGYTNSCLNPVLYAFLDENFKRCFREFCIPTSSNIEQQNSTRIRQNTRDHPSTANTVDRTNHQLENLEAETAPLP

Protein RecA = target: T6, Protein RecA (Mycobacterium tuberculosis, UniProt P9WHJ3); assay: Fluorescence Cell-Free Homogeneous Dose Retest to Identify Inhibitors of RecA-Intein Splicing Activity. [Related pubchem assays (depositor defined):AID2097, AID2223, AID489010, AID492950]; assay type: functional
T6 sequence (P9WHJ3 whole entry): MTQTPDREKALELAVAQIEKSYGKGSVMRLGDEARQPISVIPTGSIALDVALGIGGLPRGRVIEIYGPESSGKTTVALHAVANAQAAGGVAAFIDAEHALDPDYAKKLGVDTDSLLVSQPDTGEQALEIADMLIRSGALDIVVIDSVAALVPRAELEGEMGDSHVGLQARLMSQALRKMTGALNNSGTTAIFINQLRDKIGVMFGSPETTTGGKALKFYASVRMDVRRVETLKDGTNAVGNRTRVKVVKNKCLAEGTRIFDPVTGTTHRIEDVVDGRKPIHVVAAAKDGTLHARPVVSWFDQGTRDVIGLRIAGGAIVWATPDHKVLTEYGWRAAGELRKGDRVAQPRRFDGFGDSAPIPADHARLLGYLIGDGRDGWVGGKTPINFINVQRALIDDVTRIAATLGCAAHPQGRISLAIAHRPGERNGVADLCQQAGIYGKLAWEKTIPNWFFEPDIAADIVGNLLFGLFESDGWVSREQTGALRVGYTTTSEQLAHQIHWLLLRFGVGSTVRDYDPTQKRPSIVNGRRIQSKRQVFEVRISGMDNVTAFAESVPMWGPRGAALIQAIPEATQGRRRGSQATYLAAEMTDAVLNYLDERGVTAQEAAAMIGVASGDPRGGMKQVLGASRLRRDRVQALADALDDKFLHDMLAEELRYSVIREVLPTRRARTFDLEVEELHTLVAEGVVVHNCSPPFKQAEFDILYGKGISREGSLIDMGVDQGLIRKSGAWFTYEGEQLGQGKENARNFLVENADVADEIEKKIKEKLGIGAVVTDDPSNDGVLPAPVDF

Paired box protein Pax-8 = Paired box protein Pax-8 (Homo sapiens, UniProt Q06710); assay: inhibitors of PAX8-driven TPO luciferase reporter, dose response, RMG-I cells, cherry-pick (AID 687027); assay type: functional, cell-based;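 also: luciferase reporter driven by Pax8 target thyroperoxidase promoter measured by SteadyGlo luminescence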
Paired box protein Pax-8, sequence (Q06710 whole entry): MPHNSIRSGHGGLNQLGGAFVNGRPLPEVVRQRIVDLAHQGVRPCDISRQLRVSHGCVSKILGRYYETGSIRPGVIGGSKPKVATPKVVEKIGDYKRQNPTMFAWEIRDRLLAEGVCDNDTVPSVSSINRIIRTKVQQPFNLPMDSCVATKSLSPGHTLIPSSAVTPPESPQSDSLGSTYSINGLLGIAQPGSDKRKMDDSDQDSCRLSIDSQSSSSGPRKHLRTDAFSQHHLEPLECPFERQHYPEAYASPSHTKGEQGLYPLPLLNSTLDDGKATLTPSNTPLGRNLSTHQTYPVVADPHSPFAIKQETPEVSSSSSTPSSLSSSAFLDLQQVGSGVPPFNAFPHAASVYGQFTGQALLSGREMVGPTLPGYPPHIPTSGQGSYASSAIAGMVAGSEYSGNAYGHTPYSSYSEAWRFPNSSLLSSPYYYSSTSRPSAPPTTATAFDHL

[22] = non-specific cell cytotoxicity, dose response, cytotoxicity control for PAX8 inhibitor project, plate reader, dry powder samples (AID 743021); assay type: functional, cell-based
[23] = target: 5-hydroxytryptamine receptor 2A (Mus musculus, UniProt P35363); assay type: functional, cell-based;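 also: CHO-K1 cells with tagged receptor and beta-arrestin; agonist potency measured as compound-induced activation of the receptor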
5-hydroxytryptamine receptor 2A, sequence (P35363 whole entry): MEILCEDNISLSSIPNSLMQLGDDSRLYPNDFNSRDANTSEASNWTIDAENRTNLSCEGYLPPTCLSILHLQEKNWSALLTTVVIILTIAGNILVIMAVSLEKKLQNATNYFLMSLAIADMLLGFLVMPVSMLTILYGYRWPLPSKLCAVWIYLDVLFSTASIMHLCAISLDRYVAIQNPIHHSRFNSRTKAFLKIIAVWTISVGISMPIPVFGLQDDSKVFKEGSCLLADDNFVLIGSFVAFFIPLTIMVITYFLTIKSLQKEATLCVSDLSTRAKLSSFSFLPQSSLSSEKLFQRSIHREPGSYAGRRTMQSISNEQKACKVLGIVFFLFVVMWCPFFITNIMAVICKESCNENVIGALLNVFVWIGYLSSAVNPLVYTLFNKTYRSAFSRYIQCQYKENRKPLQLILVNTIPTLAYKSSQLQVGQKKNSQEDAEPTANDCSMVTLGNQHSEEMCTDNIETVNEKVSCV

Structure (SMILES): NC(=O)[C@H]1CC2(CC(c3cccc(NC(=O)COc4ccc(Cl)cc4)c3)=NO2)CN1C(=O)Cc1ccc([N+](=O)[O-])cc1 (some centres undefined)
- IC50 [1]: 5.32 µM (active)

Structure (SMILES): O=C(NNC(=O)c1cc(-c2ccc(Cl)cc2)nc2ccccc12)c1csc(N2CCOCC2)n1
- EC50 (Streptokinase A): > 150 µM (not active)
- EC50 [2]: > 150 µM (inactive)
- IC50 [3]: 58 µM (active)
- IC50 [4]: 20.8 µM (active)
- EC50 [5]: 20 µM (active)
- IC50 [6]: > 69.5 µM (inactive)
- EC50 (Streptococcus): 76.8 µM (active)
- EC50 [7]: 775 nM (active)

Structure (SMILES): Cc1cccc(/C=C\c2nc(O)c3ccccc3n2)c1
- EC50 [8]: > 67.5 µM (inactive)

Structure (SMILES): c1c2c(cc3sc(N4CCCCC4)nc13)OCCO2
- EC50 [9]: 11.5 µM (active)
- AC50 [10]: 32.9 µM (active)
- AC50 [11]: 13.6 µM (active)
- EC50 [12]: 8.83 µM (active)
- EC50 [13]: > 120 µM (not active)
- EC50 [14]: 8.9 µM (active)
- AC50 [15]: 30.7 µM (active)
- AC50 [16]: 1.97 µM (active)
- AC50 [17]: 1.58 µM (active)

Structure (SMILES): CCOC(=O)c1csc(-c2sccc2Br)n1
- EC50 [8]: > 67.6 µM (inactive)

Structure (SMILES): COc1ccc(Cl)cc1-n1c(=S)sc2c(O)nc(SCC(=O)NCC3CCCO3)nc21 (centres undefined)
- Ki (fMet-Leu-Phe receptor): 9.3 µM (active)

Structure (SMILES): COCC(=O)N1[C@@H]2Cn3c(ccc(/C=C/c4ccccc4)c3=O)[C@H]1[C@@H](C(=O)N1CCOCC1)[C@@H]2CO
- AC50 [18]: 6.74 µM (active)

Structure (SMILES): O=C(NCCc1ccncc1)[C@H]1N[C@H]2c3ccc(/C=C/c4ccccc4)c(=O)n3C[C@H]2[C@@H]1CO
- AC50 [18]: 14.1 µM (active)

Structure (SMILES): Cc1cc(N/N=C/c2ccc(O)c(C)c2O)nc(-c2ccccc2O)n1
- AC50 [19]: > 380 µM (inactive)
- EC50 [20]: 1.1 µM (active)
- EC50 (Streptokinase A): > 150 µM (not active)
- EC50 [9]: 3.71 µM (active)
- IC50 [21]: 3.3 µM (active)
- EC50 [12]: > 120 µM (not active)
- EC50 [13]: > 60 µM (not active)
- EC50 [14]: 13.1 µM (active)
- EC50 (Mu-type opioid receptor): 92.5 µM (inactive)
- EC50 [5]: 4.48 µM (active)
- EC50 (Protein RecA): > 380 µM (inconclusive)
- AC50 (Paired box protein Pax-8): 4.54 µM (active)
- EC50 (Streptococcus): 8.71 µM (active)
- AC50 [22]: 14.1 µM (active)
- EC50 [23]: 7.6 µM (active)

Structure (SMILES): CC1(C)S[C@@H]2[C@H](NC(=O)C(C(=O)O)c3ccccc3)C(=O)N2[C@H]1C(=O)O (some centres undefined) [CARBENICILLIN DISODIUM]
- Ki (fMet-Leu-Phe receptor): > 66.7 µM (inactive)
